Source: patent US10730874B2 (Shire Human Genetic Therapies, Inc., priority 2018, dated 2020)

Biological target: human activated kallikrein enzyme (plasma kallikrein) (Homo sapiens (Human), UniProt P03952)
Assay: Inhibition of human activated plasma kallikrein, fluorogenic peptide substrate assay, 500 pM enzyme format
Assay type: biochemical
Conditions: 500 pM activated kallikrein enzyme, 300 uM Pro-Phe-Arg-7-amido-4-methylcoumarin substrate, 30 min preincubation, 10 min at RT; read-out: Primary Dose Response Assay: Average EC50
Method in brief: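 Buffer 20 mM Tris pH 7.5, EDTA, NaCl, PEG-400, Triton X-100; 300 uM Pro-Phe-Arg-AMC; enzyme–inhibitor preincubation 30 min RT. Format one: 500 pM kallikrein, 10 min RT reaction; format two: 5 pM kallikrein, 18 h RT reaction. Fluorescence read at 460 nm (380 nm excitation).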

Sequence of human activated kallikrein enzyme (plasma kallikrein) (P03952 391-638): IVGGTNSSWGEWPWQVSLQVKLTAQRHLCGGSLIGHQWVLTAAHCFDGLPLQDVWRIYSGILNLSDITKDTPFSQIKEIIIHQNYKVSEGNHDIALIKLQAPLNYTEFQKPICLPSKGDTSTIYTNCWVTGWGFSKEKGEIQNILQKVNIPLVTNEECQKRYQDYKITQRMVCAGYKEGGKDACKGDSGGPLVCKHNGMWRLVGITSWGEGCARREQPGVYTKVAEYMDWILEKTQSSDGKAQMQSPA
Sequence of human activated kallikrein enzyme (plasma kallikrein) (P03952 20-390 partner): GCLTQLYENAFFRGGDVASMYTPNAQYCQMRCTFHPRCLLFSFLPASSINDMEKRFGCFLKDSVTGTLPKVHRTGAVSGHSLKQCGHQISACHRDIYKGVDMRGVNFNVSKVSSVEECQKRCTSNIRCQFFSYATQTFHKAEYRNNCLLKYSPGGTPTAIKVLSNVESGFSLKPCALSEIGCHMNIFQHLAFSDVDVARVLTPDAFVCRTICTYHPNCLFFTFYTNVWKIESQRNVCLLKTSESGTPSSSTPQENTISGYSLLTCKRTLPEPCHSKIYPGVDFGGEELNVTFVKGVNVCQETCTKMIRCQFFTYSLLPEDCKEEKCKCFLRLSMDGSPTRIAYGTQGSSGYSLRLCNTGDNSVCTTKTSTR

EC50 [nM] | SMILES
< 1 | O=C(NCc1ncn2ccc(Cl)cc12)c1cn(Cc2cn3cc(C4CC4)cc(CCc4nnn[nH]4)c3n2)nn1 [Example I-194, 1-((8-(2-(1H-tetrazol-5-yl)ethyl)-6-cyclopropylimidazo[1,2-a]pyridin-2-yl)methyl)-N-((7-chloroimidazo[1,5-a]pyridin-1-yl)methyl)-1H-1,2,3-triazole-4-carboxamide]
< 1 | O=C(NCc1ncn2ccc(Cl)cc12)c1cnn(Cc2cn3cc(C4CC4)cc(C(O)C4COC4)c3n2)c1 (stereo not drawn) [Example I-141, N-((7-chloroimidazo[1,5-a]pyridin-1-yl)methyl)-1-((6-cyclopropyl-8-(hydroxy(oxetan-3-yl)methyl)imidazo[1,2-a]pyridin-2-yl)methyl)-1H-pyrazole-4-carboxamide]
< 1 | CCOC(=O)CCc1nn(Cc2cn3cc(C4CC4)ccc3n2)cc1C(=O)NCc1ncn2ccc(Cl)cc12 [Example I-93, ethyl 3-(4-(((7-chloroimidazo[1,5-a]pyridin-1-yl)methyl)carbamoyl)-1-((6-cyclopropylimidazo[1,2-a]pyridin-2-yl)methyl)-1H-pyrazol-3-yl)propanoate]
1 to 10 | Cn1c(Cn2cc(C(=O)NCc3ncn4ccc(Cl)c(F)c34)nn2)cc2cc(C3CC3)ccc21 [Example I-233, N-((7-chloro-8-fluoroimidazo[1,5-a]pyridin-1-yl)methyl)-1-((5-cyclopropyl-1-methyl-1H-indol-2-yl)methyl)-1H-1,2,3-triazole-4-carboxamide]
1 to 10 | CCOC(=O)c1c(Cn2cc(C(=O)NCc3ncn4ccc(Cl)c(F)c34)nn2)cc2ccc(C3CC3)cn12 [Example I-268, ethyl 2-((4-(((7-chloro-8-fluoroimidazo[1,5-a]pyridin-1-yl)methyl)carbamoyl)-1H-1,2,3-triazol-1-yl)methyl)-6-cyclopropylindolizine-3-carboxylate]
1 to 10 | O=C(NCc1ncn2ccc(Cl)c(F)c12)c1nnc(C(F)(F)c2cn3cc(C4CC4)ccc3n2)o1 [Example I-243, N-((7-chloro-8-fluoroimidazo[1,5-a]pyridin-1-yl)methyl)-5-((6-cyclopropylimidazo[1,2-a]pyridin-2-yl)difluoromethyl)-1,3,4-oxadiazole-2-carboxamide]
10 to 100 | O=C(NCc1ncn2ccc(Cl)c(F)c12)c1cn(Cc2nc3ccc(C4CC4)cc3s2)nn1 [Example I-252, N-((7-chloro-8-fluoroimidazo[1,5-a]pyridin-1-yl)methyl)-1-((6-cyclopropylbenzo[d]thiazol-2-yl)methyl)-1H-1,2,3-triazole-4-carboxamide]
< 1 | C#Cc1ccn2cnc(CNC(=O)c3cnn(Cc4cn5cc(C6CC6)ccc5n4)c3)c2c1 [Example I-66, 1-((6-cyclopropylimidazo[1,2-a]pyridin-2-yl)methyl)-N-((7-ethynylimidazo[1,5-a]pyridin-1-yl)methyl)-1H-pyrazole-4-carboxamide]
< 1 | O=C(NCc1ncn2ccc(Cl)c(F)c12)c1cn(Cc2cn3cc(C4CC4)cc(-c4nn[nH]n4)c3n2)nn1 [Example I-174, N-((7-chloro-8-fluoroimidazo[1,5-a]pyridin-1-yl)methyl)-1-((6-cyclopropyl-8-(2H-tetrazol-5-yl)imidazo[1,2-a]pyridin-2-yl)methyl)-1H-1,2,3-triazole-4-carboxamide]
< 1 | O=C(NCc1ncn2ccc(Cl)c(F)c12)c1cn(Cc2cc3cc(C4CC4)cc(C(F)(F)F)n3n2)nn1 [Example I-231, N-((7-chloro-8-fluoroimidazo[1,5-a]pyridin-1-yl)methyl)-1-((5-cyclopropyl-7-(trifluoromethyl)pyrazolo[1,5-a]pyridin-2-yl)methyl)-1H-1,2,3-triazole-4-carboxamide]
100 to 2000 | Nc1ccc2c(CNC(=O)c3cnn(Cc4cn5cc(C6CC6)ccc5n4)c3)ncn2c1 [Example I-53, N-((6-aminoimidazo[1,5-a]pyridin-1-yl)methyl)-1-((6-cyclopropylimidazo[1,2-a]pyridin-2-yl)methyl)-1H-pyrazole-4-carboxamide]
10 to 100 | O=C(NCc1ncn2ccc(Cl)c(F)c12)c1cn(Cc2nc3cc(C4CC4)ccn3n2)nn1 [Example I-178, N-((7-chloro-8-fluoroimidazo[1,5-a]pyridin-1-yl)methyl)-1-((7-cyclopropyl-[1,2,4]triazolo[1,5-a]pyridin-2-yl)methyl)-1H-1,2,3-triazole-4-carboxamide]
< 1 | O=C(NCc1ncn2ccc(Cl)c(F)c12)c1cn(Cc2cn3cc(C4CC4)cc(-n4cnnn4)c3n2)nn1 [Example I-179, N-((7-chloro-8-fluoroimidazo[1,5-a]pyridin-1-yl)methyl)-1-((6-cyclopropyl-8-(1H-tetrazol-1-yl)imidazo[1,2-a]pyridin-2-yl)methyl)-1H-1,2,3-triazole-4-carboxamide]
< 1 | O=C(NCc1ncn2ccc(Cl)c(F)c12)c1cn(Cc2cn3cc(C4CC4)cc(CC4COC4)c3n2)nn1 [Example I-186, N-((7-chloro-8-fluoroimidazo[1,5-a]pyridin-1-yl)methyl)-1-((6-cyclopropyl-8-(oxetan-3-ylmethyl)imidazo[1,2-a]pyridin-2-yl)methyl)-1H-1,2,3-triazole-4-carboxamide]
< 1 | O=C(NCc1ncn2ccc(Cl)cc12)c1cnn(Cc2cn3cc(C4CC4)cc(C4CC4C(=O)O)c3n2)c1 (stereo not drawn) [Example I-133, 2-(2-((4-(((7-chloroimidazo[1,5-a]pyridin-1-yl)methyl)carbamoyl)-1H-pyrazol-1-yl)methyl)-6-cyclopropylimidazo[1,2-a]pyridin-8-yl)cyclopropane-1-carboxylic acid]
< 1 | CCOC(=O)Cc1cc(C2CC2)cn2cc(Cn3cc(C(=O)NCc4ncn5ccc(Cl)c(F)c45)nn3)nc12 [Example I-157a, ethyl 2-(2-((4-(((7-chloro-8-fluoroimidazo[1,5-a]pyridin-1-yl)methyl)carbamoyl)-1H-1,2,3-triazol-1-yl)methyl)-6-cyclopropylimidazo[1,2-a]pyridin-8-yl)acetate]
1 to 10 | O=C(NCc1ncn2ccc(Cl)c(F)c12)c1cn(Cc2cn3ncc(C4CC4)cc3n2)nn1 [Example I-217, N-((7-chloro-8-fluoroimidazo[1,5-a]pyridin-1-yl)methyl)-1-((7-cyclopropylimidazo[1,2-b]pyridazin-2-yl)methyl)-1H-1,2,3-triazole-4-carboxamide]
< 1 | CC(C)(C#N)Cc1cc(C2CC2)cn2cc(Cn3cc(C(=O)NCc4ncn5ccc(Cl)c(F)c45)cn3)nc12 [Example I-237, N-((7-chloro-8-fluoroimidazo[1,5-a]pyridin-1-yl)methyl)-1-((8-(2-cyano-2-methylpropyl)-6-cyclopropylimidazo[1,2-a]pyridin-2-yl)methyl)-1H-pyrazole-4-carboxamide]
< 1 | O=C(NCc1ncn2ccc(Cl)cc12)c1nc(Cc2cn3cc(C4CC4)ccc3n2)no1 [Example I-190, N-((7-chloroimidazo[1,5-a]pyridin-1-yl)methyl)-3-((6-cyclopropylimidazo[1,2-a]pyridin-2-yl)methyl)-1,2,4-oxadiazole-5-carboxamide]
< 1 | O=Cc1cc(C2CC2)cn2cc(Cn3cc(C(=O)NCc4ncn5ccc(Cl)c(F)c45)nn3)nc12 [Example I-182, N-((7-chloro-8-fluoroimidazo[1,5-a]pyridin-1-yl)methyl)-1-((6-cyclopropyl-8-formylimidazo[1,2-a]pyridin-2-yl)methyl)-1H-1,2,3-triazole-4-carboxamide]
< 1 | Cc1nncn1-c1cc(C2CC2)cn2cc(Cn3cc(C(=O)NCc4ncn5ccc(Cl)c(F)c45)nn3)nc12 [Example I-249, N-((7-chloro-8-fluoroimidazo[1,5-a]pyridin-1-yl)methyl)-1-((6-cyclopropyl-8-(3-methyl-4H-1,2,4-triazol-4-yl)imidazo[1,2-a]pyridin-2-yl)methyl)-1H-1,2,3-triazole-4-carboxamide]
< 1 | O=C(O)CCc1cc(C2CC2)cn2cc(Cn3cc(C(=O)NCc4ncn5ccc(Cl)c(F)c45)nn3)nc12 [Example I-163b, 3-(2-((4-(((7-chloro-8-fluoroimidazo[1,5-a]pyridin-1-yl)methyl)carbamoyl)-1H-1,2,3-triazol-1-yl)methyl)-6-cyclopropylimidazo[1,2-a]pyridin-8-yl)propanoic acid]

SMILES | EC50 [nM]
O=C(NCc1ncn2ccc(Cl)cc12)c1cnc(Cc2cn3cc(C4CC4)ccc3n2)s1 [Example I-38, N-((7-chloroimidazo[1,5-a]pyridin-1-yl)methyl)-2-((6-cyclopropylimidazo[1,2-a]pyridin-2-yl)methyl)thiazole-5-carboxamide] | 1 to 10
N#Cc1cccc2nc(Cn3cc(C(=O)NCc4ncn5ccc(Br)cc45)cn3)cn12 [Example I-55, N-((7-bromoimidazo[1,5-a]pyridin-1-yl)methyl)-1-((5-cyanoimidazo[1,2-a]pyridin-2-yl)methyl)-1H-pyrazole-4-carboxamide] | 10 to 100
O=C(NCc1ncn2ccc(Cl)cc12)c1cn(Cc2cn3cc(C4CC4)ccc3n2)nc1Cc1nn[nH]n1 [Example I-126, 3-((2H-tetrazol-5-yl)methyl)-N-((7-chloroimidazo[1,5-a]pyridin-1-yl)methyl)-1-((6-cyclopropylimidazo[1,2-a]pyridin-2-yl)methyl)-1H-pyrazole-4-carboxamide] | < 1
Cc1cc2nc(Cn3cc(C(=O)NCc4ncn5ccc(Br)cc45)cn3)cn2cc1C1CC1 [Example I-17, N-((7-bromoimidazo[1,5-a]pyridin-1-yl)methyl)-1-((6-cyclopropyl-7-methylimidazo[1,2-a]pyridin-2-yl)methyl)-1H-pyrazole-4-carboxamide] | 1 to 10
CS(=O)(=O)c1cc(C2CC2)cn2cc(Cn3cc(C(=O)NCc4ncn5ccc(Cl)cc45)cn3)nc12 [Example I-159, N-((7-chloroimidazo[1,5-a]pyridin-1-yl)methyl)-1-((6-cyclopropyl-8-(methylsulfonyl)imidazo[1,2-a]pyridin-2-yl)methyl)-1H-pyrazole-4-carboxamide] | < 1
